# Measurements: patent US20080045537A1, “Chemical Compounds” (priority 2004, published 2008)
# pIC50: −log10 of the molar value.
# Test system: HIV-1 IIIB (T-tropic, CXCR4 utilizing)
# Assay: HOS HIV-1 infectivity assay
# Type: cell-based
# Conditions: Human immunodeficiency virus 1, IIIB; as determined by the infectivity assay; strain not stated in Table 2; read-out: Activity Level
# In short: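 Engineered HOS reporter cells in 2% FCS medium received compound 1 h ahead of HIV-1 (~2 million RLU/well). Cultures ran 96 h at 37 °C before luciferase quantitation; parallel uninfected wells were scored for viability by CellTiter-Glo.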
row,pIC50,Structure (SMILES)
1,> 7.00,"CC(C)CN1CCN(c2cccc3[nH]c(CN(C)C4CCCc5cccnc54)nc23)CC1 (stereo not shown) [Example 36, N-methyl-N-({4-[4-(2-methylpropyl)-1-piperazinyl]-1H-benzimidazol-2-yl}methyl)-5,6,7,8-tetrahydro-8-quinolinamine]"
2,> 7.00,"CCN(Cc1nc2cccc(N3CCN(C)CC3)c2n1C)[C@H]1CCCc2cccnc21 [Example 167, (8S)—N-Ethyl-N-{[1-methyl-7-(4-methyl-1-piperazinyl)-1H-benzimidazol-2-yl]methyl}-5,6,7,8-tetrahydro-8-quinolinamine]"
3,6.30 to 7.00,"CCS(=O)(=O)N1CCN(C(=O)c2cccc3[nH]c(CN(C)C4CCCc5cccnc54)nc23)CC1 (stereo not shown) [Example 85, N-[(4-{[4-(Ethylsulfonyl)-1-piperazinyl]carbonyl}-1H-benzimidazol-2-yl)methyl]-N-methyl-5,6,7,8-tetrahydro-8-quinolinamine]"
4,> 7.00,"CC1CNCCN1C(=O)c1cccc2[nH]c(CN(C)C3CCCc4cccnc43)nc12 (stereo not shown) [Example 91, N-methyl-N-({4-[(2-methyl-1-piperazinyl)carbonyl]-1H-benzimidazol-2-yl}methyl)-5,6,7,8-tetrahydro-8-quinolinamine]"
5,> 7.00,"CN1CCN(c2cccc3nc(CN(C)C4CCCCc5cccnc54)[nH]c23)CC1 (stereo not shown) [Example 185, N-methyl-N-{[4-(4-methyl-1-piperazinyl)-1H-benzimidazol-2-yl]methyl}-6,7,8,9-tetrahydro-5H-cyclohepta[b]pyridin-9-amine]"
6,> 7.00,"CNCCNC(=O)c1ccc2[nH]c(CN(C)C3CCCc4cccnc43)nc2c1 (stereo not shown) [Example 53, N-[2-(Methylamino)ethyl]-2-{[methyl(5,6,7,8-tetrahydro-8-quinolinyl)amino]methyl}-1H-benzimidazole-5-carboxamide]"
7,6.30 to 7.00,"CN(Cc1nc2c(NC(=O)CN)cccc2[nH]1)C1CCCc2cccnc21 (stereo not shown) [Example 99, N^1-(2-{[methyl(5,6,7,8-tetrahydro-8-quinolinyl)amino]methyl}-1H-benzimidazol-4-yl)glycinamide]"
8,> 7.00,"CN(Cc1nc2c(CCCN)cccc2[nH]1)C1CCCc2cccnc21 (stereo not shown) [Example 97, N-{[4-(3-aminopropyl)-1H-benzimidazol-2-yl]methyl}-N-methyl-5,6,7,8-tetrahydro-8-quinolinamine]"
9,> 7.00,"CN1CCN(c2cccc3nc(CN(Cc4ccccc4)[C@H]4CCCc5cccnc54)n(C)c23)CC1 [Example 169, (8S)—N-{[1-Methyl-7-(4-methyl-1-piperazinyl)-1H-benzimidazol-2-yl]methyl}-N-(Phenylmethyl)-5,6,7,8-tetrahydro-8-quinolinamine]"
10,> 7.00,"CNCCN(C)c1cccc2[nH]c(CN(C)C3CCCc4cccnc43)nc12 (stereo not shown) [Example 108, Methyl[2-(methylamino)ethyl](2-{[methyl(5,6,7,8-tetrahydro-8-quinolinyl)amino]methyl}-1H-benzimidazol-4-yl)amine]"
11,6.30 to 7.00,"CN1CCN(C(=O)c2ccc3[nH]c(CN(C)C4CCCc5cccnc54)nc3c2)CC1 (stereo not shown) [Example 58, N-Methyl-N-({5-[(4-methyl-1-piperazinyl)carbonyl]-1H-benzimidazol-2-yl}methyl)-5,6,7,8-tetrahydro-8-quinolinamine]"
12,> 7.00,"CN1CCN(c2cccc3nc(C(C)(C)N(C)C4CCCc5cccnc54)[nH]c23)CC1 (stereo not shown) [Example 115, N-Methyl-N-{1-methyl-1-[4-(4-methyl-1-piperazinyl)-1H-benzimidazol-2-yl]ethyl}-5,6,7,8-tetrahydro-8-quinolinamine]"
13,6.30 to 7.00,"CN(C)CC(C)(C)CNC(=O)c1cccc2[nH]c(CN(C)C3CCCc4cccnc43)nc12 (stereo not shown) [Example 80, N-[3-(Dimethylamino)-2,2-dimethylpropyl]-2-{[methyl(5,6,7,8-tetrahydro-8-quinolinyl)amino]methyl}-1H-benzimidazole-4-carboxamide]"
14,> 7.00,"CN(C)CCNc1cccc2[nH]c(CN(C)C3CCCc4cccnc43)nc12 (stereo not shown) [Example 107, [2-(Dimethylamino)ethyl](2-{[methyl(5,6,7,8-tetrahydro-8-quinolinyl)amino]methyl}-1H-benzimidazol-4-yl)amine]"
15,6.30 to 7.00,"CN(Cc1nc2c(N3CCN(C(=O)c4ccccn4)CC3)cccc2[nH]1)C1CCCc2cccnc21 (stereo not shown) [Example 117, N-Methyl-N-({4-[4-(2-pyridinylcarbonyl)-1-piperazinyl]-1H-benzimidazol-2-yl}methyl)-5,6,7,8-tetrahydro-8-quinolinamine]"
16,6.30 to 7.00,"CCN(Cc1nc2cc(C(=O)NCCN(C)C)ccc2[nH]1)C1CCCc2cccnc21 (stereo not shown) [Example 50, N-[2-(Dimethylamino)ethyl]-2-{[ethyl(5,6,7,8-tetrahydro-8-quinolinyl)amino]methyl}-1H-benzimidazole-5-carboxamide]"
17,> 7.00,"CNCCN(C)C(=O)c1ccc2[nH]c(CN(C)C3CCCc4cccnc43)nc2c1 (stereo not shown) [Example 51, N-Methyl-N-[2-(methylamino)ethyl]-2-{[methyl(5,6,7,8-tetrahydro-8-quinolinyl)amino]methyl}-1H-benzimidazole-5-carboxamide]"
18,> 7.00,"CCN(Cc1nc2cccc(N3CCN(C)CC3)c2[nH]1)[C@@H]1CCCc2cccnc21 [Example 134, (8R)—N-Ethyl-N-{[4-(4-methyl-1-piperazinyl)-1H-benzimidazol-2-yl]methyl}-5,6,7,8-tetrahydro-8-quinolinamine]"
19,6.30 to 7.00,"CN(Cc1nc2c(NC(=O)c3cccnc3)cccc2[nH]1)C1CCCc2cccnc21 (stereo not shown) [Example 102, N-(2-{[Methyl(5,6,7,8-tetrahydro-8-quinolinyl)amino]methyl}-1H-benzimidazol-4-yl)-3-pyridinecarboxamide]"
20,> 7.00,"CCCN(Cc1nc2cccc(N3CCN4CCC[C@@H]4C3)c2[nH]1)[C@H]1CCCc2cccnc21 [Example 143, (8S)—N-({4-[(8aR)-hexahydropyrrolo[1,2-a]pyrazin-2(1H)-yl]-1H-benzimidazol-2-yl}methyl)-N-propyl-5,6,7,8-tetrahydro-8-quinolinamine]"
21,5.00 to 6.30,"CN(Cc1nc2ccc(C(=O)N3CCC(CCN4CCCC4)CC3)cc2[nH]1)C1CCCc2cccnc21 (stereo not shown) [Example 42, N-Methyl-N-{[5-({4-[2-(1-pyrrolidinyl)ethyl]-1-piperidinyl}carbonyl)-1H-benzimidazol-2-yl]methyl}-5,6,7,8-tetrahydro-8-quinolinamine]"
22,> 7.00,"CCCN(Cc1nc2cccc(N3CCN(C)CC3)c2[nH]1)[C@@H]1CCCc2cccnc21 [Example 136, (8R)—N-{[4-(4-methyl-1-piperazinyl)-1H-benzimidazol-2-yl]methyl}-N-propyl-5,6,7,8-tetrahydro-8-quinolinamine]"
23,> 7.00,CN1CCN(c2cccc3nc(CN(CCOCc4ccccc4)[C@H]4CCCc5cccnc54)[nH]c23)CC1 [Example 147]
24,> 7.00,"CC(C)N1CCN(c2cccc3[nH]c(CN(C(C)C)C4CCCc5cccnc54)nc23)CC1 (stereo not shown) [Example 113, N-(1-methylethyl)-N-({4-[4-(1-methylethyl)-piperazinyl]-1H-benzimidazol-2-yl}methyl)-5,6,7,8-tetrahydro-8-quinolinamine]"
25,> 7.00,"CN(C)CCN(C)C(=O)c1ccc2[nH]c(CN(C)C3CCCc4cccnc43)nc2c1 (stereo not shown) [Example 55, N-[2-(Dimethylamino)ethyl]-N-methyl-2-{[methyl(5,6,7,8-tetrahydro-8-quinolinyl)amino]methyl}-1H-benzimidazole-5-carboxamide]"
26,5.00 to 6.30,"CN(Cc1nc2cc(C(=O)NCc3cccnc3)ccc2[nH]1)C1CCCc2cccnc21 (stereo not shown) [Example 39, 2-{[Methyl(5,6,7,8-tetrahydro-8-quinolinyl)amino]methyl}-N-(3-pyridinylmethyl)-1H-benzimidazole-5-carboxamide]"
27,6.30 to 7.00,"CC(=O)N1CCN(c2cccc3[nH]c(CN(C)C4CCCc5cccnc54)nc23)CC1 (stereo not shown) [Example 110, N-{[4-(4-Acetyl-1-piperazinyl)-1H-benzimidazol-2-yl]methyl}-N-methyl-5,6,7,8-tetrahydro-8-quinolinamine]"
28,> 7.00,"COc1ccc([C@H](C)N(Cc2nc3cccc(N4CCN(C)CC4)c3[nH]2)[C@H]2CCCc3cccnc32)cc1 [Example 146, (8S)—N-{(1S)-1-[4-(methyloxy)phenyl]ethyl}-N-{[4-(4-methyl-1-piperazinyl)-1H-benzimidazol-2-yl]methyl}-5,6,7,8-tetrahydro-8-quinolinamine]"

row,Structure (SMILES),pIC50
1,"CN(Cc1nc2c(C(=O)N3CCC(N)CC3)cccc2[nH]1)C1CCCc2cccnc21 (stereo not shown) [Example 82, N-({4-[(4-Amino-1-piperidinyl)carbonyl]-1H-benzimidazol-2-yl}methyl)-N-methyl-5,6,7,8-tetrahydro-8-quinolinamine]",> 7.00

# Same assay, conditions: Human immunodeficiency virus 1; HIV-1 IIIB, HOS cells, 96 h, luciferase readout; read-out: HOS (3B)
row,pIC50,Structure (SMILES)
1,7.30,"CC(C)CN1CCN(c2cccc3[nH]c(CN(C)C4CCCc5cccnc54)nc23)CC1 (stereo not shown) [Example 36, N-methyl-N-({4-[4-(2-methylpropyl)-1-piperazinyl]-1H-benzimidazol-2-yl}methyl)-5,6,7,8-tetrahydro-8-quinolinamine]"

# Test system: not listed separately
# Assay: Compound cytotoxicity in the absence of virus addition (CellTiter-Glo)
# Type: cell-based
# Conditions: human; non-infected HOS cultures; read-out: Cytotox (pIC50) (converted)
# Experimental: Compounds were profiled against two HIV-1 viruses, the M-tropic (CCR5 utilizing) Ba-L strain and the T-tropic (CXCR4 utilizing) IIIB strain. Both viruses were propagated in human peripheral blood lymphocytes. Compounds were tested for there ability to block infection of the HOS cell line (expressing hCXCR4/hCCR5/hCD4/pHIV-LTR-luciferase) by either HIV-1 Ba-L or HIV-1 IIIB. Compound cytotoxicity was also examined in the absence of virus addition.
# HOS cells (expressing hCXCR4/hCCR5/hCD4/pHIV-LTR-luciferase) were harvested and diluted in Dulbeccos modified Eagles media supplemented with 2% FCS and non-essential amino acid to a concentration of 60,000 cells/ml. The cells were plated into 96-well plates (100 ul per well) and the plates were placed in a tissue culture incubator (37° C.; 5% CO2/95% air) for a period of 24 h.
# Subsequently, 50 ul of the desired drug solution (4 times the final concentration) was added to each well and the plates were returned to the tissue culture incubator (37° C.; 5% CO2/95% air) for 1 h. Following this incubation 50 ul of diluted virus was added to each well (approximately 2 million RLU per well of virus). The plates were returned to the tissue culture incubator (37° C.; 5% CO2/95% air) and were incubated for a further 96 h.
# Following this incubation the endpoint for the virally infected cultures was quantified following addition of Steady-Glo Luciferase assay system reagent (Promega, Madison, Wis.). Cell viability or non-infected cultures was measured using a CellTiter-Glo luminescent cell viability assay system (Promega, Madison, Wis.). All luminescent readouts are performed on a Topcount luminescence detector (Packard, Meridien, Conn.).
row,Structure (SMILES),IC50 at 96 h [µM]
1,"CC(C)CN1CCN(c2cccc3[nH]c(CN(C)C4CCCc5cccnc54)nc23)CC1 (stereo not shown) [Example 36, N-methyl-N-({4-[4-(2-methylpropyl)-1-piperazinyl]-1H-benzimidazol-2-yl}methyl)-5,6,7,8-tetrahydro-8-quinolinamine]",> 100
